What was measured:
Experiment in all cases: Bliss excess, mean over the matrix (fraction); higher = more synergy
[1] = system: MFE-280 (Endometrial Carcinoma)
Procedure, shortened: (§1)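 Cell lines in DMEM/F12 or RPMI with 10% FBS were plated in 1536-well plates, held 24 hours at 37°C, 5% CO2, then given two-drug dose matrices for 72 hours (DMSO typically 0.2%). Viability was read by CellTiter-Glo 2.0 luminescence and scaled as inhibition from 0 (vehicle wells) to 1 (blank wells). Combination Emax is the second-highest inhibition in the matrix; Bliss excess is observed combination effect minus expected EA + EB − EA·EB, EA and EB being single-agent effects.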

[2] = system: PANC-03-27 (Pancreatic Carcinoma)
Procedure, shortened: as §1

[3] = system: REH (B-Lymphoblastic Leukemia)
Procedure, shortened: as §1

[4] = system: HEC-1 (Endometrial Carcinoma)
Procedure, shortened: as §1

LN-229 (Glioblastoma) = system: LN-229 (Glioblastoma)
Procedure, shortened: as §1

[5] = system: LB996-RCC (Kidney Carcinoma)
Procedure, shortened: as §1

[6] = system: LK-2 (Squamous Cell Lung Carcinoma)
Procedure, shortened: as §1

[7] = system: CAL-62 (Thyroid Gland Carcinoma)
Procedure, shortened: as §1

[8] = system: COLO-680N (Esophageal Squamous Cell Carcinoma)
Procedure, shortened: as §1

[9] = system: NCI-H446 (Small Cell Lung Carcinoma)
Procedure, shortened: as §1

[10] = system: PSN1 (Pancreatic Carcinoma)
Procedure, shortened: as §1

[11] = system: GP5d (Colorectal Carcinoma)
Procedure, shortened: as §1

[12] = system: MKN45 (Gastric Carcinoma)
Procedure, shortened: as §1

[13] = system: RKN (Other Solid Carcinomas)
Procedure, shortened: as §1

[14] = system: TE-8 (Esophageal Squamous Cell Carcinoma)
Procedure, shortened: as §1

[15] = system: SHP-77 (Small Cell Lung Carcinoma)
Procedure, shortened: as §1

[16] = system: KE-37 (T-Lymphoblastic Leukemia)
Procedure, shortened: as §1

[17] = system: FADU (Head and Neck Carcinoma)
Procedure, shortened: as §1

[18] = system: RERF-LC-Sq1 (Squamous Cell Lung Carcinoma)
Procedure, shortened: as §1

Row | Structure (SMILES) | Bliss excess [1] | Bliss excess [2] | Bliss excess [3] | Bliss excess [4] | Bliss excess (LN-229 (Glioblastoma)) | Bliss excess [5] | Bliss excess [6] | Bliss excess [7] | Bliss excess [8] | Bliss excess [9] | Bliss excess [10] | Bliss excess [11] | Bliss excess [12] | Bliss excess [13] | Bliss excess [14] | Bliss excess [15] | Bliss excess [16] | Bliss excess [17] | Bliss excess [18]
1 | Cc1cc2ncnn2cc1Nc1ncc2c(n1)n(C1CCOCC1)c(=O)n2C [AZD7648] + CCN(CCO)CCCOc1ccc2c(Nc3cc(CC(=O)Nc4cccc(F)c4)[nH]n3)ncnc2c1 [AZD2811] (first compound max 10 µM, 7x7, partner max 1 µM) | 0.019 | -0.0255 | -0.0541 | -0.0269 | 0.0148 | -0.0098 | -0.0328 | 0.0427 | -0.0458 | -0.0157 | -0.0218 | 0.0648 | -0.0635 | -0.0148 | 0.0717 | -0.0244 | -0.0002 | 0.0177 | -0.0048
2 | COc1cccc(OCCCN)c1-c1cc(Nc2cnc(C#N)cn2)n[nH]1 [Prexasertib] + O=C(c1cc(Cc2n[nH]c(=O)c3ccccc23)ccc1F)N1CCN(C(=O)C2CC2)CC1 [Olaparib] (first compound max 1 µM, 7x7, partner max 10 µM) | -0.0223 | -0.0102 | -0.0271 | -0.0535 | -0.181 | -0.0145 | -0.0249 | -0.0031 | -0.0652 | 0.003 | -0.0146 | -0.0179 | -0.044 | -0.0958 | -0.075 | -0.0791 | 0.0073 | 0.0354 | -0.0373
3 | Cc1cc2ncnn2cc1Nc1ncc2c(n1)n(C1CCOCC1)c(=O)n2C [AZD7648] + CN(C)CCCOc1ccc(-c2ccc3ncc4c(c3c2)n(C2CCOCC2)c(=O)n4C)cn1 [AZD0156] (first compound max 10 µM, 7x7, partner max 1 µM) | 0.0058 | 0.0421 | -0.113 | -0.0239 | -0.0161 | -0.0542 | -0.0036 | 0.0145 | -0.0078 | 0.0418 | -0.0413 | -0.0119 | -0.0268 | -0.0352 | -0.0453 | -0.0017 | 0.0492 | -0.0048 | 0.0114
4 | C[C@@H]1COCCN1c1cc(C2([S@](C)(=N)=O)CC2)nc(-c2ccnc3[nH]ccc23)n1 [AZD6738] + O=C(c1cc(Cc2n[nH]c(=O)c3ccccc23)ccc1F)N1CCN(C(=O)C2CC2)CC1 [Olaparib] (first compound max 10 µM, 7x7, partner max 10 µM) | 0.0368 | 0.0141 | 0.0021 | -0.0041 | -0.0713 | 0.0143 | 0.0091 | 0.0428 | 0.0109 | 0.0602 | -0.0122 | -0.0092 | -0.0683 | -0.007 | -0.0218 | 0.0804 | 0.0288 | 0.0098 | -0.0101
5 | CCc1c2c(nc3ccc(O)cc13)-c1cc3c(c(=O)n1C2)COC(=O)[C@]3(O)CC [SN-38] + CN(C)CCCOc1ccc(-c2ccc3ncc4c(c3c2)n(C2CCOCC2)c(=O)n4C)cn1 [AZD0156] (first compound max 0.3 µM, 7x7, partner max 1 µM) | -0.0605 | -0.0071 | -0.0093 | -0.0374 | -0.0305 | 0.0011 | 0.0959 | -0.0143 | 0.0306 | 0.121 | -0.0198 | 0.0624 | -0.049 | 0.0057 | 0.148 | 0.0296 | 0.0603 | -0.0007 | 0.114
6 | COc1cc2c(cc1OCCCCCOc1cc3c(cc1OC)C(=O)N1C=C(C)C[C@H]1C=N3)N=C[C@@H]1CC(C)=CN1C2=O [SG3199] + O=C(c1cc(Cc2n[nH]c(=O)c3ccccc23)ccc1F)N1CCN(C(=O)C2CC2)CC1 [Olaparib] (first compound max 0.001 µM, 7x7, partner max 10 µM) | -0.0092 | -0.062 | -0.0099 | 0.0483 | -0.0454 | 0.0077 | -0.0137 | -0.0342 | -0.043 | -0.0372 | -0.0371 | -0.0206 | -0.0633 | -0.0377 | -0.049 | -0.0137 | 0.0055 | -0.0009 | 0.0049
7 | Cc1cc2ncnn2cc1Nc1ncc2c(n1)n(C1CCOCC1)c(=O)n2C [AZD7648] + C=CCn1c(=O)c2cnc(Nc3ccc(N4CCN(C)CC4)cc3)nc2n1-c1cccc(C(C)(C)O)n1 [AZD1775] (first compound max 10 µM, partner max 1 µM) | -0.0406 | -0.048 | -0.06 | -0.0318 | -0.0067 | -0.0252 | -0.0018 | 0.0057 | -0.012 | -0.0228 | -0.0577 | -0.0431 | -0.0887 | 0.0089 | 0.0308 | -0.0798 | -0.0108 | -0.0112 | 0.0053
8 | CCN(CCO)CCCOc1ccc2c(Nc3cc(CC(=O)Nc4cccc(F)c4)[nH]n3)ncnc2c1 [AZD2811] + C[C@@H]1COCCN1C2=NC(=NC(=C2)C3(CC3)[S@](=N)(=O)C)C4=C5C=CNC5=NC=C4 [AZD6738] (first compound max 1 µM, 7x7, partner max 10 µM) | -0.0223 | -0.123 | -0.0518 | -0.0175 | -0.0563 | 0.0304 | -0.064 | -0.0568 | -0.0737 | -0.0514 | -0.0366 | -0.0575 | -0.0439 | 0.0009 | -0.0484 | -0.0583 | -0.0515 | -0.0165 | -0.0169

Source: the supplement of paper PMC11061612
